Like-named read-outs stand apart in the source and are kept apart here.
How the values were obtained:
[1] = biological target: T1, first (BD1: amino acids K57-E168) bromodomain of BRD4 (Homo sapiens, UniProt O60885); assay: TR-FRET bromodomain binding assay, BRD4 BD1; conditions: Ki calculated from IC50, probe Kd and probe concentration, read-out: TR-FRET Binding Ki: BRD4 (BDI_K57-E168)
T1 construct: His-tagged first (BD1: amino acids K57-E168)
Method in brief: (§1)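 His-tagged BRD4 bromodomain competed against an Alexa647-labeled BET-inhibitor probe by TR-FRET in 20 mM sodium phosphate pH 6.0, 50 mM NaCl, 1 mM EDTA, 0.01% Triton X-100, 1 mM DTT.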

[2] = biological target: T2, second (BD2: amino acids E352-E168) bromodomain of BRD4 (Homo sapiens, UniProt O60885); assay: TR-FRET bromodomain binding assay, BRD4 BD2; conditions: Ki calculated from IC50, probe Kd and probe concentration, read-out: TR-FRET Binding Ki: BRD4 (BDII_E352-M457)
T2 construct: protocol
Method in brief: as §1

[3] = TR-FRET assay protocol (A-G, compound concentration range)
[4] = TR-FRET assay protocol (D, E or G) per compound

| Compound | Ki [1, 3] | Ki [2, 3] | Ki [1, 4] | Ki [2, 4] |
| --- | --- | --- | --- | --- |
| CCS(=O)(=O)Nc1ccc(Oc2ccc(OC3CCN(C(=O)OC(C)(C)C)CC3)cc2F)c(-c2cn(C)c(=O)cc2OC2CCN(C(=O)OC(C)(C)C)CC2)c1 [Example 320, tert-butyl 4-[(5-{2-(4-{[1-(tert-butoxycarbonyl)piperidin-4-yl]oxy}-2-fluorophenoxy)-5-[(ethylsulfonyl)amino]phenyl}-1-methyl-2-oxo-1,2-dihydropyridin-4-yl)oxy]piperidine-1-carboxylate] | > 2380 nM | 275 nM |  |  |
| CCO/C=C/c1cc(=O)n(C)cc1-c1cc(S(C)(=O)=O)ccc1NCC1CC1 [Example 327, 5-{2-[(cyclopropylmethyl)amino]-5-(methylsulfonyl)phenyl}-4-[(E)-2-ethoxyethenyl]-1-methylpyridin-2(1H)-one] | 680 nM | 1110 nM |  |  |
| CCS(=O)(=O)Nc1ccc(Oc2ccc(F)cc2F)c(-c2cn(C)c(=O)cc2-c2ccccc2O)c1 [Example 331, N-{4-(2,4-difluorophenoxy)-3-[4-(2-hydroxyphenyl)-1-methyl-6-oxo-1,6-dihydropyridin-3-yl]phenyl}ethanesulfonamide] | 164 nM | 551 nM |  |  |
| CCS(=O)(=O)Nc1ccc(Oc2ccc(F)cc2F)c(-c2cn(C)c(=O)cc2-c2cscc2C=O)c1 [Example 332, N-{4-(2,4-difluorophenoxy)-3-[4-(4-formylthiophen-3-yl)-1-methyl-6-oxo-1,6-dihydropyridin-3-yl]phenyl}ethanesulfonamide] | 1010 nM | 205 nM |  |  |
| Cn1cc(-c2cc(S(C)(=O)=O)ccc2NCC2CC2)c(OC(C)(C)C(C)(C)O)cc1=O [Example 341, 5-{2-[(cyclopropylmethyl)amino]-5-(methylsulfonyl)phenyl}-4-[(3-hydroxy-2,3-dimethylbutan-2-yl)oxy]-1-methylpyridin-2(1H)-one] | > 2380 nM | > 4080 nM |  |  |
| CCOc1cc(=O)n(C)cc1-c1cc(NS(=O)(=O)c2ccc(Cl)cc2F)ccc1Oc1ccc(F)cc1F [Example 348, 4-chloro-N-[4-(2,4-difluorophenoxy)-3-(4-ethoxy-1-methyl-6-oxo-1,6-dihydropyridin-3-yl)phenyl]-2-fluorobenzenesulfonamide] | 196 nM | 63.1 nM |  |  |
| CCS(=O)(=O)c1ccc(Oc2ccc(F)cc2F)c(-c2cn(C)c(=O)cc2Cl)c1 [Example 382, 4-chloro-5-[2-(2,4-difluorophenoxy)-5-(ethylsulfonyl)phenyl]-1-methylpyridin-2(1H)-one] |  |  | 317 nM | 276 nM |
| CCOC(=O)N1CCC(Oc2ccc(NS(=O)(=O)CC)cc2-c2cn(C)c(=O)cc2OCC)CC1 [Example 388, ethyl 4-{2-(4-ethoxy-1-methyl-6-oxo-1,6-dihydropyridin-3-yl)-4-[(ethylsulfonyl)amino]phenoxy}piperidine-1-carboxylate] |  |  | 766 nM | 1420 nM |
| CCOc1cc(=O)n(C)cc1-c1cc(NS(=O)(=O)CC)ccc1OC1CCN(C(C)=O)CC1 [Example 389, N-{4-[(1-acetylpiperidin-4-yl)oxy]-3-(4-ethoxy-1-methyl-6-oxo-1,6-dihydropyridin-3-yl)phenyl}ethanesulfonamide] |  |  | 1260 nM | 3990 nM |
| CCOc1cc(=O)n(C)cc1-c1cc(NS(=O)(=O)CC)ccc1OC1Cc2ccccc2C1 [Example 394, N-[4-(2,3-dihydro-1H-inden-2-yloxy)-3-(4-ethoxy-1-methyl-6-oxo-1,6-dihydropyridin-3-yl)phenyl]ethanesulfonamide] |  |  | 272 nM | 516 nM |
| CCS(=O)(=O)c1ccc(Oc2ccc(F)cc2F)c(-c2cn(C)c(=O)cc2OCC(F)(F)F)c1 [Example 398] |  |  | 203 nM | 30.9 nM |
| CCOc1cc(=O)n(C)cc1-c1cc(N)ccc1Oc1ccc(F)cc1F [Example 406, 5-[5-amino-2-(2,4-difluorophenoxy)phenyl]-4-ethoxy-1-methylpyridin-2(1H)-one] |  |  | 1550 nM | 567 nM |
| CCOc1cc(=O)n(C)cc1-c1cc(S(C)(=O)=O)ccc1NCc1ccc(F)cc1F [Example 409, 5-{2-[(2,4-difluorobenzyl)amino]-5-(methylsulfonyl)phenyl}-4-ethoxy-1-methylpyridin-2(1H)-one] |  |  | 2010 nM | 1100 nM |
| CCOc1cc(=O)n(C)cc1-c1cc(NS(=O)(=O)CC)ccc1OC1CCN(c2ccc(C(F)(F)F)cc2)CC1 [Example 410, N-[3-(4-ethoxy-1-methyl-6-oxo-1,6-dihydropyridin-3-yl)-4-({1-[4-(trifluoromethyl)phenyl]piperidin-4-yl}oxy)phenyl]ethanesulfonamide] |  |  | 590 nM | 560 nM |

More lines, now with the values ahead:

| Ki [1, 3] | Ki [2, 3] | Ki [1, 4] | Ki [2, 4] | Compound |
| --- | --- | --- | --- | --- |
| 611 nM | 1830 nM |  |  | CCO/C=C\c1cc(=O)n(C)cc1-c1cc(S(C)(=O)=O)ccc1NCC1CC1 [Example 337, 5-{2-[(cyclopropylmethyl)amino]-5-(methylsulfonyl)phenyl}-4-[(Z)-2-ethoxyethenyl]-1-methylpyridin-2(1H)-one] |
| 114 nM | 702 nM |  |  | CCOC(=O)Nc1cc(-c2cc(S(=O)(=O)CC)ccc2OCC2CC2)cn(C)c1=O [Example 338, ethyl{5-[2-(cyclopropylmethoxy)-5-(ethylsulfonyl)phenyl]-1-methyl-2-oxo-1,2-dihydropyridin-3-yl}carbamate] |
| 172 nM | 971 nM |  |  | CCS(=O)(=O)c1ccc(OCC2CC2)c(-c2cc(NS(C)(=O)=O)c(=O)n(C)c2)c1 [Example 339, N-{5-[2-(cyclopropylmethoxy)-5-(ethylsulfonyl)phenyl]-1-methyl-2-oxo-1,2-dihydropyridin-3-yl}methanesulfonamide] |
| 1390 nM | 752 nM |  |  | Cc1cccc(OCC2CC2)c1-c1ccc(=O)n(C)c1 [Example 356, 5-[2-(cyclopropylmethoxy)-6-methylphenyl]-1-methylpyridin-2(1H)-one] |
| 159 nM | 1420 nM |  |  | CCS(=O)(=O)c1ccc(OCC2CC2)c(-c2cc(N)c(=O)n(C)c2)c1 [Example 357, 3-amino-5-[2-(cyclopropylmethoxy)-5-(ethylsulfonyl)phenyl]-1-methylpyridin-2(1H)-one] |
| 127 nM | 700 nM |  |  | CCS(=O)(=O)c1ccc(O[C@H]2CC[C@@](C)(OC)CC2)c(-c2ccc(=O)n(C)c2)c1 [Example 360, 5-{5-(ethylsulfonyl)-2-[(cis-4-methoxy-4-methylcyclohexyl)oxy]phenyl}-1-methylpyridin-2(1H)-one] |
| 600 nM | 1170 nM |  |  | CCS(=O)(=O)c1ccc(OCC2CC2)c(-c2cc(NC(C)=O)c(=O)n(C)c2)c1 [Example 361, N-{5-[2-(cyclopropylmethoxy)-5-(ethylsulfonyl)phenyl]-1-methyl-2-oxo-1,2-dihydropyridin-3-yl}acetamide] |
| 1350 nM | > 4440 nM |  |  | CCS(=O)(=O)Nc1ccc(OCC2CC2)c(-c2ccc(=O)n(C)c2)c1C [Example 365, N-[4-(cyclopropylmethoxy)-2-methyl-3-(1-methyl-6-oxo-1,6-dihydropyridin-3-yl)phenyl]ethanesulfonamide] |
| 629 nM | 570 nM |  |  | CCS(=O)(=O)Nc1cc(-c2ccc(=O)n(C)c2)c(OCC2CC2)cc1C [Example 366, N-[4-(cyclopropylmethoxy)-2-methyl-5-(1-methyl-6-oxo-1,6-dihydropyridin-3-yl)phenyl]ethanesulfonamide] |
